The record followed here is US20220339134A1, “VERY-LONG-CHAIN POLYUNSATURATED FATTY ACIDS, ELOVANOID HYDROXYLATED DERIVATIVES, AND METHODS OF USE” (Board of Supervisors of Louisiana State University and …, priority 2019, published 2022).

Assay [1] has as its system primary human RPE cells. Briefly: Primary human RPE cells treated with 10 μM OAβ +/- ELVs (SA-β-Gal staining, qPCR). It counts as cell-based. Conditions: 3 days qPCR, 7 days staining. On the procedure: (A) In vitro experimental design: Primary human RPE cells were treated with 10 μM OAβ+/−ELVs. After 3 days, RNA was isolated and qPCR analyzed. After 7 days, cells were subjected to β-Galactosidase staining. (B) Live cell images under bright field microscopy after 7 days. (C) β-Gal staining+/−ELVs. Quantitation of % for the β-Gal positive cells. ELVs decreased positive senescent cells. (D) Gene transcription of senescence, AMD-related and autophagy genes after OAβ (1-42) exposure+/−ELVs. (*P <0.05, student t-test).
OAβ toxicity is counteracted by ELVs in primary hRPE. (A) Primary hRPE cells were treated with 10 μM OAβ with or without adding ELVs. After 3 days, the total RNA was isolated and q-PCR analyzed. After 7 days, cells were subjected to β-Galactosidase staining. (B) Live cell images of primary hRPE under bright field microscope imaging after 7 days. (C) β-Galactosidase staining of primary hRPE, +/−ELVs. Quantitation of % for the β-Gal positive cells. ELVs decreased positive senescent cells. […]
Cells were visualized using SA-β-Gal staining kit (Cat 9860, Cell Signaling Technology, MA, USA). […] Pictures were taken under brightfield microscope (Nikon Eclipse TS100) 200× magnification after the development of blue color, and cells counted in 10 different random fields per well. […]
A general note: Quantitative PCR measures a nucleic acid by following its amplification.

Assay [2] relates to human diabetic and non-diabetic adipocytes. Briefly: TP53 and IL8 expression (Taqman Real time PCR) in human adipocytes treated with IL1β. It is filed as cell-based. The method, then:
A) experimental design. B) expression levels of TP53 and IL8 in human diabetic and non-diabetic adipocytes by the means of Taqman Real time PCR.
IL1β is a cytokine that induce insulin resistance in adipocytes 18 • Similarly, IL8 was elevated by IL1β and brought down around 40 folds by 500 nM ELV34 in both diabetic and non-diabetic adipocytes. Even though the mechanisms are unknown ELV34 can be a therapeutic agent to stop or halt damaging signaling observed in diabetic patients.

The subject of assay [3] is hypothalamus, SAT and VAT. Briefly: Adiponectin levels in diabetic hypothalamus and adipose tissue. Further details: species or system db/db mice.

As to `CC/C=C\C[C@H](O)\C=C/C=C/C=C/[C@H](O)C/C=C\C/C=C\CCCCCCCCCCCCCCC(=O)O` [ELV-N-34], the “OAβ effects: RPE cell morphology, SASP (SA-β-Gal), senescence, AMD, MMP and autophagy gene expression” value in assay [1] is given as “reverted these effects”. In assay [2] (500 nM, IL1β-elevated, diabetic and non-diabetic adipocytes), the IL8 brought down entry is given as “around 40 folds”. Moreover, the “levels of TP53 mRNA” value in assay [2] (adipocytes from diabetic patient treated with IL1β) is “down to non-diabetic control levels”. The “effect of IL1β (TP53 and IL8 expression)” value in assay [2] (human diabetic adipocytes) is reported as “revert the effect of IL1β”. Further, the “adiponectin in subcutaneous (SAT) and visceral adipose tissue (VAT)” value in assay [3] is reported as “Differential effect”. The “levels of Adiponectin” value in assay [3] (ELV34 treatment) is “increased”. The “adiponectin in diabetic hypothalamus” value in assay [3] (female and males) is recorded as “trend of increase”.
